Data from US20250353848A1, “HETEROCYCLIC PAD4 INHIBITORS” (Celgene Corporation, priority 2022, published 2025).

Target: hPAD4 enzyme (Homo sapiens, UniProt Q9UM07)
Test: RFMS Assay 1 (rapid-fire mass spectrum PAD4 inhibition assay, BAEE substrate)
Format: biochemical
Conditions: 5 nM hPAD4 enzyme, 250 μM BAEE, 30 mins compound and enzyme preincubation at 37° C., 90 min enzyme/substrate reaction
Procedure: Compounds were solubilized in 100% DMSO to achieve a 10 mM compound concentration. Compound stock solutions were stored at RT. A series of dilutions were prepared in DMSO and mixed 8 times with 20 μL mixing volume. Final top concentration of compound in the assay is 50 μM. Final assay conditions were as follows: • Reaction volume: 26 μl • Assay buffer: 25 mM hepes, pH 7.5, 5 mM NaCl, 1 mM DTT, 0.2 mg/ml BSA, 0.01% CHAPS, 50 μM Calcium, and 5 μM TPEN • Final concentrations: 5 nM hPAD4 enzyme, 250 μM BAEE, and 0.5% DMSO • Total incubation time: 30 mins compound and enzyme preincubation at 37° C., 90 min enzyme/substrate reaction, 30 min reaction with phenyl glyoxal at 37° C. • Stop solution: 40 μl 5% TCA in ACN
0.13 μL of compound solution was added to 13 μL of 10 nM PAD4 in assay buffer. After 30 min 13 μl of 500 μM of BAEE was added in 25 mM hepes, pH 7.5, 5 mM NaCl, 1 mM DTT, 0.2 mg/ml BSA, 0.01% CHAPS, 50 µM Calcium, […] was added and the reaction incubated for 90 min at 37° C. The enzymatic reaction was quenched by addition of 15 μl of 6.1N TCA, 100% Final Concentration is 20%, 35 μl of 8.5 mM phenyl glyoxal (final concentration 4 mM) is then added and the reaction is incubated for 30 min at 37° C.
After 30 minutes the plates are spun down to remove all precipitate. The enzyme reaction was quenched with an equal volume of methanol containing internal standard (modified citrulline). Samples were loaded onto the Rapid Fire RF300 system (Agilent) wherein they were first sipped for 1000 ms and then directly loaded to a C18 separations cartridge using a mixture of acetonitrile containing 0.01% formic acid for 3000 ms desalting. The flow rate of the mobile phase was 1.5 ml/min. Once the samples were eluted from the cartridge, a mobile phase of acetonitrile containing 0.01% formic acid was used to move the samples into the mass spectrometer for 4000 ms at a flow rate of 1.25 ml/min/Sciex AP15500 triple quadrupole mass spectrometer (Applied Biosystems) equipped with ESI was used to analyze the peptidyl citrulline and internal standard ions.
MRM transition of product and internal standard were monitored at m/z 424.5 to 350.4 and m/z 293 to 247 respectively. The dwell time for each transition was set at 200 ms, and the ESI voltage was used at 5500 with a source temperature of 400° C. Extracted ion peaks for each transition were integrated using the Rapid Fire Integrator software. Peak area of analyte was normalized with internal standard.).

hPAD4 enzyme, sequence (Q9UM07 whole entry): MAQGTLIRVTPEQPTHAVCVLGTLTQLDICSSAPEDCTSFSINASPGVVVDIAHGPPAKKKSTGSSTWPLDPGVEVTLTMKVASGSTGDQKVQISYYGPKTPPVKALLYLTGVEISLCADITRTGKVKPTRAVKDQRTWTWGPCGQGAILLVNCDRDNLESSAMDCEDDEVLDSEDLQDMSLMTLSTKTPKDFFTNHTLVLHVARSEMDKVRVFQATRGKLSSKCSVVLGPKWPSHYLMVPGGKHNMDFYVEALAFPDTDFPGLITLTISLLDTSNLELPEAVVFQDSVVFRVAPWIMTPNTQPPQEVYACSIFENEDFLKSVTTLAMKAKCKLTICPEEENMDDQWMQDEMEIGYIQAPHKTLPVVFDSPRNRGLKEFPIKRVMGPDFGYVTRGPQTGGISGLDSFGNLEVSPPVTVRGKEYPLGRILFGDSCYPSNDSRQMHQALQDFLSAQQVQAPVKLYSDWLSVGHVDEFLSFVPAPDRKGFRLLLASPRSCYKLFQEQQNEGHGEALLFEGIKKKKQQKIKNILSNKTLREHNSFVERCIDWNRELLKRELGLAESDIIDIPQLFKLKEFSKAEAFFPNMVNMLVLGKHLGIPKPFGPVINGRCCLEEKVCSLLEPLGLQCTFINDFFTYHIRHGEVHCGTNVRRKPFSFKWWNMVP

Row | Compound | IC50
1 | CN1C[C@H](COc2cccc3cc(-c4nc5cc6c(nc5n4C)CCN(C[C@H](N)CF)C6=O)n(CC4CC4)c23)CS1(=O)=O [Example 53, 7-((S)-2-amino-3-fluoropropyl)-2-(1-(cyclopropylmethyl)-7-(((R)-2-methyl-1,1-dioxidoisothiazolidin-4-yl)methoxy)-1H-indol-2-yl)-3-methyl-3,5,6,7-tetrahydro-8H-imidazo[4,5-b][1,6]naphthyridin-8-one] | 101 to 500 nM
2 | Cc1nnc(CCOc2cccc3cc(-c4nc5cc6c(nc5n4C)CCN(C[C@H](N)CF)C6=O)n(CC4CC4)c23)s1 [Example 55, (S)-7-(2-amino-3-fluoropropyl)-2-(1-(cyclopropylmethyl)-7-(2-(5-methyl-1,3,4-thiadiazol-2-yl)ethoxy)-1H-indol-2-yl)-3-methyl-3,5,6,7-tetrahydro-8H-imidazo[4,5-b][1,6]naphthyridin-8-one] | 101 to 500 nM
3 | Cn1c(-c2cc3cccc(OCCc4ccccn4)c3n2CC2CC2)nc2cc3c(nc21)CCN(C[C@H](N)CF)C3=O [Example 58, (S)-7-(2-amino-3-fluoropropyl)-2-(1-(cyclopropylmethyl)-7-(2-(pyridin-2-yl)ethoxy)-1H-indol-2-yl)-3-methyl-3,5,6,7-tetrahydro-8H-imidazo[4,5-b][1,6]naphthyridin-8-one] | 101 to 500 nM
4 | C[C@@H](Cn1cnc(F)c1)Oc1cccc2cc(-c3nc4cc5c(nc4n3C)CCN(C[C@H](N)CF)C5=O)n(CC3CC3)c12 [Example 66, 7-((S)-2-amino-3-fluoropropyl)-2-(1-(cyclopropylmethyl)-7-(((S)-1-(4-fluoro-1H-imidazol-1-yl)propan-2-yl)oxy)-1H-indol-2-yl)-3-methyl-3,5,6,7-tetrahydro-8H-imidazo[4,5-b][1,6]naphthyridin-8-one] | ≤ 10 nM
5 | C[C@@H](Cn1cncc1F)Oc1cccc2cc(-c3nc4cc5c(nc4n3C)CCN(C[C@H](N)CF)C5=O)n(CC3CC3)c12 [Example 68, 7-((S)-2-amino-3-fluoropropyl)-2-(1-(cyclopropylmethyl)-7-(((S)-1-(5-fluoro-1H-imidazol-1-yl)propan-2-yl)oxy)-1H-indol-2-yl)-3-methyl-3,5,6,7-tetrahydro-8H-imidazo[4,5-b][1,6]naphthyridin-8-one] | 101 to 500 nM
6 | C[C@@H](COc1cccc2cc(-c3nc4cc5c(nc4n3C)CCN(C[C@H](N)CF)C5=O)n(CC3CC3)c12)n1ccnc1 [Example 80, 2-(7-((S)-2-(1H-imidazol-1-yl)propoxy)-1-(cyclopropylmethyl)-1H-indol-2-yl)-7-((S)-2-amino-3-fluoropropyl)-3-methyl-3,5,6,7-tetrahydro-8H-imidazo[4,5-b][1,6]naphthyridin-8-one] | 11 to 100 nM
7 | C[C@@H](COc1cccc2cc(-c3nc4cc5c(nc4n3C)CCN(C[C@H](N)CF)C5=O)n(CC3CC3)c12)n1cncc1C#N [Example 88, 1-((S)-1-((2-(7-((S)-2-amino-3-fluoropropyl)-3-methyl-8-oxo-5,6,7,8-tetrahydro-3H-imidazo[4,5-b][1,6]naphthyridin-2-yl)-1-(cyclopropylmethyl)-1H-indol-7-yl)oxy)propan-2-yl)-1H-imidazole-5-carbonitrile] | 101 to 500 nM
8 | Cn1c(-c2cc3cccc(OCCn4ccnc4C#N)c3n2CC2CC2)nc2cc3c(nc21)CCN(C[C@H](N)CF)C3=O [Example 89, (S)-1-(2-((2-(7-(2-amino-3-fluoropropyl)-3-methyl-8-oxo-5,6,7,8-tetrahydro-3H-imidazo[4,5-b][1,6]naphthyridin-2-yl)-1-(cyclopropylmethyl)-1H-indol-7-yl)oxy)ethyl)-1H-imidazole-2-carbonitrile] | 101 to 500 nM

The remaining lines, values ahead:

Row | IC50 | Compound
9 | ≤ 10 nM | Cn1cc(CCOc2cccc3cc(-c4nc5cc6c(nc5n4C)CCN(C[C@H](N)CF)C6=O)n(CC4CC4)c23)cn1 [Example 51, (S)-7-(2-amino-3-fluoropropyl)-2-(1-(cyclopropylmethyl)-7-(2-(1-methyl-1H-pyrazol-4-yl)ethoxy)-1H-indol-2-yl)-3-methyl-3,5,6,7-tetrahydro-8H-imidazo[4,5-b][1,6]naphthyridin-8-one]
10 | 11 to 100 nM | Cn1c(-c2cc3cccc(OC[C@H]4CNS(=O)(=O)C4)c3n2CC2CC2)nc2cc3c(nc21)CCN(C[C@H](N)CF)C3=O [Example 52, 7-((S)-2-amino-3-fluoropropyl)-2-(1-(cyclopropylmethyl)-7-(((R)-1,1-dioxidoisothiazolidin-4-yl)methoxy)-1H-indol-2-yl)-3-methyl-3,5,6,7-tetrahydro-8H-imidazo[4,5-b][1,6]naphthyridin-8-one]
11 | ≤ 10 nM | Cn1c(-c2cc3cccc(OCCc4cccnc4)c3n2CC2CC2)nc2cc3c(nc21)CCN(C[C@H](N)CF)C3=O [Example 56, (S)-7-(2-amino-3-fluoropropyl)-2-(1-(cyclopropylmethyl)-7-(2-(pyridin-3-yl)ethoxy)-1H-indol-2-yl)-3-methyl-3,5,6,7-tetrahydro-8H-imidazo[4,5-b][1,6]naphthyridin-8-one]
12 | 11 to 100 nM | Cn1c(-c2cc3cccc(OCCc4ccncc4)c3n2CC2CC2)nc2cc3c(nc21)CCN(C[C@H](N)CF)C3=O [Example 57, (S)-7-(2-amino-3-fluoropropyl)-2-(1-(cyclopropylmethyl)-7-(2-(pyridin-4-yl)ethoxy)-1H-indol-2-yl)-3-methyl-3,5,6,7-tetrahydro-8H-imidazo[4,5-b][1,6]naphthyridin-8-one]
13 | 11 to 100 nM | C[C@@H](Cn1ccnc1)Oc1cccc2cc(-c3nc4cc5c(nc4n3C)CCN(C[C@H](N)CF)C5=O)n(CC3CC3)c12 [Example 63, 2-(7-(((S)-1-(1H-imidazol-1-yl)propan-2-yl)oxy)-1-(cyclopropylmethyl)-1H-indol-2-yl)-7-((S)-2-amino-3-fluoropropyl)-3-methyl-3,5,6,7-tetrahydro-8H-imidazo[4,5-b][1,6]naphthyridin-8-one]
14 | ≤ 10 nM | C[C@H](Cn1cnc(F)c1)Oc1cccc2cc(-c3nc4cc5c(nc4n3C)CCN(C[C@H](N)CF)C5=O)n(CC3CC3)c12 [Example 67, 7-((S)-2-amino-3-fluoropropyl)-2-(1-(cyclopropylmethyl)-7-(((R)-1-(4-fluoro-1H-imidazol-1-yl)propan-2-yl)oxy)-1H-indol-2-yl)-3-methyl-3,5,6,7-tetrahydro-8H-imidazo[4,5-b][1,6]naphthyridin-8-one]
15 | 11 to 100 nM | C[C@H](Cn1cncc1F)Oc1cccc2cc(-c3nc4cc5c(nc4n3C)CCN(C[C@H](N)CF)C5=O)n(CC3CC3)c12 [Example 69, 7-((S)-2-amino-3-fluoropropyl)-2-(1-(cyclopropylmethyl)-7-(((R)-1-(5-fluoro-1H-imidazol-1-yl)propan-2-yl)oxy)-1H-indol-2-yl)-3-methyl-3,5,6,7-tetrahydro-8H-imidazo[4,5-b][1,6]naphthyridin-8-one]
16 | ≤ 10 nM | C[C@H](COc1cccc2cc(-c3nc4cc5c(nc4n3C)CCN(C[C@@H](C)N)C5=O)n(CC3CC3)c12)n1cnc(F)c1 [Example 81, 7-((R)-2-aminopropyl)-2-(1-(cyclopropylmethyl)-7-((R)-2-(4-fluoro-1H-imidazol-1-yl)propoxy)-1H-indol-2-yl)-3-methyl-3,5,6,7-tetrahydro-8H-imidazo[4,5-b][1,6]naphthyridin-8-one]
17 | ≤ 10 nM | C[C@H](COc1nccc2cc(-c3nc4cc5c(nc4n3C)CCN(C[C@H](N)CF)C5=O)n(CC3CC3)c12)n1cnc(F)c1 [Example 83, 7-((S)-2-amino-3-fluoropropyl)-2-(1-(cyclopropylmethyl)-7-((R)-2-(4-fluoro-1H-imidazol-1-yl)propoxy)-1H-pyrrolo[2,3-c]pyridin-2-yl)-3-methyl-3,5,6,7-tetrahydro-8H-imidazo[4,5-b][1,6]naphthyridin-8-one]
18 | 11 to 100 nM | C[C@@H](COc1cccc2cc(-c3nc4cc5c(nc4n3C)CCN(C[C@H](N)CF)C5=O)n(CC3CC3)c12)n1cnc(C#N)c1 [Example 87, 1-((S)-1-((2-(7-((S)-2-amino-3-fluoropropyl)-3-methyl-8-oxo-5,6,7,8-tetrahydro-3H-imidazo[4,5-b][1,6]naphthyridin-2-yl)-1-(cyclopropylmethyl)-1H-indol-7-yl)oxy)propan-2-yl)-1H-imidazole-4-carbonitrile]
19 | ≤ 10 nM | [2H]c1nc([2H])n(CCOc2cccc3cc(-c4nc5cc6c(nc5n4C)CCN(C[C@H](N)CF)C6=O)n(CC4CC4)c23)c1[2H] [Example 90, (S)-2-(7-(2-(1H-imidazol-1-yl-d3)ethoxy)-1-(cyclopropylmethyl)-1H-indol-2-yl)-7-(2-amino-3-fluoropropyl)-3-methyl-3,5,6,7-tetrahydro-8H-imidazo[4,5-b][1,6]naphthyridin-8-one]
